From publication PMC9154793, “Design, synthesis, and biological evaluation of triazole-pyrimidine-methylbenzonitrile derivatives as dual A2A/A2B adenosine receptor antagonists” (Journal of Enzyme Inhibition and Medicinal Chemistry, 2022)

Key:
human A2A AR = human A2A AR (Homo sapiens, UniProt P29274); assay: cAMP functional assay in CHO-K1/ADORA2A/Gα15 cells (NECA-stimulated, HTRF); format: cell-based; conditions: relative to ZM241385 at 1 μM, mean ± SEM; for inhibition at 0.01 µM / inhibition at 0.1 µM / inhibition at 1 µM: CHO-K1; for inhibition at 0.01 µM: read-out: hA2A AR (%) inhibition of cAMP, 10 nM; for inhibition at 0.1 µM: read-out: hA2A AR (%) inhibition of cAMP, 100 nM; for inhibition at 1 µM: read-out: hA2A AR (%) inhibition of cAMP, 1000 nM;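 for all read-outs here: inhibition of NECA-driven intracellular cAMP build-up in the A2A-expressing cells, quantified with cAMP-d2 plus Eu3+-labelled anti-cAMP detection reagent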
human A2A AR, sequence (P29274 whole entry): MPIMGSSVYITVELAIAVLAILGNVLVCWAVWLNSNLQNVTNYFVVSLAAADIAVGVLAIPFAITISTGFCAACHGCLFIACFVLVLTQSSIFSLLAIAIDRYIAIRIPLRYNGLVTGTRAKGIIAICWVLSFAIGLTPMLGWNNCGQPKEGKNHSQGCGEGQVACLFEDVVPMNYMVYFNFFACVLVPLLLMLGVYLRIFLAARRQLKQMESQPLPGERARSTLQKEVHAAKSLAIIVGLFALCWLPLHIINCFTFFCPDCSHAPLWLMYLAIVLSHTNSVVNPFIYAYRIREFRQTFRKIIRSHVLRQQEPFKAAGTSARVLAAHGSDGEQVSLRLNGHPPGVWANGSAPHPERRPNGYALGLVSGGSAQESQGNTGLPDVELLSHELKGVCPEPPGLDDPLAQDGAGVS
Experimental: (§16) In the cAMP assay, CHO-K1/ADORA2A/Gα15 cells expressing human A2A AR and CHO-K1/ADORA2b/Gα15 cells expressing human A2B AR were activated by 5′-(N-ethylcarboxamido)adenosine (NECA) and triggered the accumulation of intracellular cAMP concentration.
(§17) CHO-K1/ADORA2A/Gα15 cells expressing human A2A AR and CHO-K1/ADORA2b/Gα15 cells expressing human A2B AR were both constructed by Genscript Biotech Corporation. […] The test stock solutions were diluted with different gradients for use. The procedure was exemplified by the cAMP functional assay on the A2A receptor: 10,000 cells/well of CHO-K1/ADORA2A/Gα15 were seeded in a 384-well plate in 20 μl of assay buffer. […] Then, 10 μl of detection reagent (cAMP-d2 and anti-cAMP-Eu3+) was added into each well of the plate and incubated at room temperature for 1 h.

human A2B AR = target: T1, human A2B AR (Homo sapiens, UniProt P29275); assay: cAMP functional assay in CHO-K1/ADORA2b/Gα15 cells (NECA-stimulated, HTRF); format: cell-based; conditions: compound at 100 nM, relative to ZM241385 at 1 μM, mean ± SEM; for inhibition at 0.1 µM: CHO-K1, read-out: hA2B AR (%) inhibition of cAMP, 100 nM
T1 sequence (P29275 1-332): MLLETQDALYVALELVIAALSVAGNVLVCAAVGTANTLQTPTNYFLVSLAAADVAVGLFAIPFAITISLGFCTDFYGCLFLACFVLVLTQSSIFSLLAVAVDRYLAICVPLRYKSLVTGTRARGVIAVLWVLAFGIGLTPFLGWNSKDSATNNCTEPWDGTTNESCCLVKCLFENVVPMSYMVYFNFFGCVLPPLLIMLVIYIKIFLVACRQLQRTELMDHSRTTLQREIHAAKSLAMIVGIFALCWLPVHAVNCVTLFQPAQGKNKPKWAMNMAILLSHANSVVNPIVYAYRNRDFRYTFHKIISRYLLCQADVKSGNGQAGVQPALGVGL
Experimental: as §16, §17

[1] = Metabolic stability in human liver microsomes; format: in vitro ADME
Experimental: (§1) The metabolic stability is an important focus for further compound optimisation. Compounds 7f, 7i, and AB928 were chosen to evaluate the stability in rat liver microsomes and human liver microsomes. For the microsomal metabolic experiment, 7-ethoxycoumarin (7-EC) was used as a control. As shown in Table 4 (see Supporting information for raw data), the CLint(liver) of 7-EC in rats and humans was 10.0 and 9.0 ml/min/g liver, respectively, indicating the experimental test system was reliable.
(§2) Metabolic stabilities of compounds 7f, 7i, and AB928 in liver microsomes were studied with pooled human (male) liver microsomes solution (20 mg/ml) and male Sprague–Dawley rats pooled liver microsomes solution (20 mg/ml) purchased from Research Institute for Liver Diseases (Shanghai) Co. Ltd. Both liver microsomes solutions (140 μl) were diluted by 3948 μl of water and 280 μl of phosphate buffered saline. The assay procedure: 640 μl of diluted liver microsomes solution was added to a solution of compound working solution (16 μl, 25 μM in DMSO) and the mixed solution was incubated at 37 °C for 5 min. Then 160 μl of NADPH generating system was added and take out 100 μl from the mixed solution was added 200 μl of acetonitrile solution to stop the reaction at the set incubation time (0 min, 10 min, 20 min, 30 min, 40 min, 50 min, and 60 min). All stopped reaction solutions were vortex mixed (3 min) and centrifuged (10,000 rpm, 4 °C for 10 min). Then 50 μl of the supernatant was analysed by UPLC-MS/MS system (details of the analytical method see Supporting information). […]
(§3) 8. Metabolic stability in human and rat liver microsomes
(§4) Metabolic stabilities of compounds 7f, 7i and AB928 in liver microsomes were studied with pooled human (male) liver microsomes solution (20 mg/mL) and male Sprague - Dawley rats pooled liver microsomes solution (20 mg/mL) purchased from Research Institute for Liver Diseases (Shanghai) Co. Ltd. Both liver microsomes solutions (140 μL) were diluted by 3948 μL of water and 280 μL of phosphate buffered saline. The assay procedure: 640 μL of diluted liver microsomes solution was added to a solution of compound working solution (16 μL, 25 μM in DMSO) and the mixed solution was […]
(§5) (1 picture or pasted object on this page, not shown here) […]
(§6) incubated at 37 ℃ for 5 min. Then 160 μL of NADPH generating system was added and take out 100 μL from the mixed solution was added 200 μL of acetonitrile solution to stop the reaction at the set incubation time (0 min, 10 min, 20 min, 30 min, 40 min, 50 min, and 60 min). All stopped reaction solutions were vortex mixed (3 min) and centrifuged (10000 rpm, 4 ℃ for 10 min). Then 50 μL of the supernatant was analyzed […]
(§7) 8.2 Chromatography and mass spectrometry conditions
(§8) UPLC was performed using an […] UPLC system (Waters, Milford, MA, […]
(§9) USA). Separation was achieved on a Waters BEH C18 column(100 mm × 2.1 mm， 1.7 μm) at 40 ℃. The injection volume of the sample solution was 5 μL. The mobile phase consisted of water (0.1% formic acid and ammonium acetate) and acetonitrile solution (20:80, v/v) at a flow rate of 0.4 mL/min within a running time of 6 min. Mass spectrometric analysis was performed on a Waters Xevo TQ-S triple quadrupole instrument using electrospray ionization in positive mode. Quantification was performed using multiple reaction monitoring (MRM) mode to monitor precursor-product ion transitions (Table S1).
(§10) Table S1. Conditions of MRM Detection. […]
(§11) Table S2. Raw data of metabolic stability in human and rat liver microsomes. […]
(§12) (min) Hum Rat Hum Rat Hum Rat Hum Rat
(§13) 9. Analytical method of pharmacokinetics assay
(§14) Animal experiments were performed according to the institutional ethical guidelines on animal care and approved by the Institute Animal Care and Use Committee at Binzhou […]
(§15) Female Bal b/c mice (sourced from Jinan Pengyue Experimental Animal Breeding […]

[2] = Metabolic stability in rat liver microsomes; format: in vitro ADME, Sprague–Dawley rats
Experimental: as §1, §2, §3, §4, §5, §6, §7, §8, §9, §10, §11, §12, §13, §14, §15

With “3-(2-Amino-6-(1-((6–(2-(hydroxymethyl)pyrrolidine-1-carbonyl)pyridin-2-yl)methyl)-1H-1,2,3-triazol-4-yl)pyrimidin-4-yl)-2-methylbenzonitrile [Compound 7l]” the “hA2A AR (%) inhibition of cAMP, 10 nM” value (human A2A AR; compound at 10 nM) was 13.46 ± 3.71%, the “hA2A AR (%) inhibition of cAMP, 100 nM” value (human A2A AR; compound at 100 nM) was 52.3 ± 8.46% and the “hA2A AR (%) inhibition of cAMP, 1000 nM” value (human A2A AR; compound at 1000 nM) was 89.66 ± 1.31%. For the same compound, the “hA2B AR (%) inhibition of cAMP, 100 nM” value (human A2B AR) was 84.34 ± 4.72%.
In the case of `CCOc1ccc2ccc(=O)oc2c1` [Compound 7-EC, 7-ethoxycoumarin, reference compound], the “CLint(liver) Hum” value ([1]; human, microsomes) is reported as 9.0 mL/min/g, the half-life at 0.49 µM ([1]; male, human, microsomes) is reported as 8.12 min and the remaining at 20 min, 0.49 µM ([1]; male, human, microsomes) is reported as 11.5%. It also gave a remaining at 0.5 h, 0.49 µM ([1]; male, human, microsomes) of 3.54%, a remaining at 40 min, 0.49 µM ([1]; male, human, microsomes) of 1.6% and a remaining at 50 min, 0.49 µM ([1]; male, human, microsomes) of 0.97%. For the same compound, the remaining at 1 h, 0.49 µM ([1]; male, human, microsomes) was 0.72%, the remaining at 10 min, 0.49 µM ([1]; male, human liver microsomes, 10 min, read-out: %Remaining Hum, 10 min) was 34% and the remaining at 10 min, 0.49 µM ([2]; male, Sprague-Dawley, pooled rat liver microsomes, rat liver microsomes, 10 min) was 49%. The remaining at 20 min, 0.49 µM ([2]; male, Sprague-Dawley, pooled rat liver microsomes, rat liver microsomes, 20 min) was 23%, the remaining at 0.5 h, 0.49 µM ([2]; male, Sprague-Dawley, pooled rat liver microsomes, rat liver microsomes, 30 min) was 10.4% and the remaining at 40 min, 0.49 µM ([2]; male, Sprague-Dawley, pooled rat liver microsomes, rat liver microsomes, 40 min) was 2.98%. The remaining at 50 min, 0.49 µM ([2]; male, Sprague-Dawley, pooled rat liver microsomes, rat liver microsomes, 50 min) was 1.02%, the remaining at 1 h, 0.49 µM ([2]; male, Sprague-Dawley, pooled rat liver microsomes, rat liver microsomes, 60 min, read-out: Remaining (%, T = 60min) Rat) was 0.35% and the half-life at 0.49 µM ([2]; male, Sprague-Dawley, rat, pooled rat liver microsomes, read-out: T1/2 Rat) was 7.26 min. The “CLint(liver) Rat” value ([2]; rat liver microsomes) was 10.0 mL/min/g.
Compound `Cc1c(C#N)cccc1-c1cc(-c2cn(Cc3ccc4ccccc4n3)nn2)nc(N)n1` [Compound 7a, 3-(2-Amino-6–(1-(quinolin-2-ylmethyl)-1H-1,2,3-triazol-4-yl)pyrimidin-4-yl)-2-methylbenzonitrile] has an inhibition at 0.01 µM (human A2A AR; compound at 10 nM) of 28.2 ± 8.79%, an inhibition at 0.1 µM (human A2A AR; compound at 100 nM) of 16.5 ± 1.9% and an inhibition at 1 µM (human A2A AR; compound at 1000 nM) of 43.5 ± 0.77%. For the same compound, the inhibition at 0.1 µM (human A2B AR) was 3.51 ± 3.19% and the melting point was 203 to 204 °C.
Compound `Cc1c(C#N)cccc1-c1cc(-c2cn(Cc3ccc4cccc(N)c4n3)nn2)nc(N)n1` [Compound 7c, 3-(2-amino-6-(1-((8-aminoquinolin-2-yl)methyl)-1H-1,2,3-triazol-4-yl)pyrimidin-4-yl)-2-methylbenzonitrile] has an inhibition at 0.01 µM (human A2A AR; compound at 10 nM) of 35.9 ± 5.39%, an inhibition at 0.1 µM (human A2A AR; compound at 100 nM) of 38.2 ± 10.8% and an inhibition at 1 µM (human A2A AR; compound at 1000 nM) of 48.5 ± 1.45%. The inhibition at 0.1 µM (human A2B AR) was 85.43 ± 0.04% and the melting point was 268 to 269 °C.
`COC(=O)c1cccc(Cn2cc(-c3cc(-c4cccc(C#N)c4C)nc(N)n3)nn2)n1` [Compound 7d, Methyl 6-((4-(2-amino-6-(3-cyano-2-methylphenyl)pyrimidin-4-yl)-1H-1,2,3-triazol-1-yl)methyl)picolinate] showed an inhibition at 0.01 µM (human A2A AR; compound at 10 nM) of 40.8 ± 9.01%, an inhibition at 0.1 µM (human A2A AR; compound at 100 nM) of 63.4 ± 1.39% and an inhibition at 1 µM (human A2A AR; compound at 1000 nM) of 91.3 ± 4.28%. It also gave an inhibition at 0.1 µM (human A2B AR) of 80.3 ± 1.84% and a melting point of 105 to 106 °C.
Compound `Cc1c(C#N)cccc1-c1cc(-c2cn(Cc3cccc(C(=O)OC(C)C)n3)nn2)nc(N)n1` [Compound 7e, Isopropyl 6-((4-(2-amino-6-(3-cyano-2-methylphenyl)pyrimidin-4-yl)-1H-1,2,3-triazol-1-yl)methyl)picolinate] has an inhibition at 0.01 µM (human A2A AR; compound at 10 nM) of 45 ± 1.25%, an inhibition at 0.1 µM (human A2A AR; compound at 100 nM) of 50.7 ± 5.51% and an inhibition at 1 µM (human A2A AR; compound at 1000 nM) of 67.8 ± 4.91%. The inhibition at 0.1 µM (human A2B AR) was 82.5 ± 7.81% and the melting point was 128 to 129 °C.
`Cc1c(C#N)cccc1-c1cc(-c2cn(Cc3cccc(-c4ncc[nH]4)n3)nn2)nc(N)n1` [Compound 7g, 3-(6-(1-((6-(1H-imidazol-2-yl)pyridin-2-yl)methyl)-1H-1,2,3-triazol-4-yl)-2-aminopyrimidin-4-yl)-2-methylbenzonitrile] showed an inhibition at 0.01 µM (human A2A AR; compound at 10 nM) of 19.6 ± 2.13%, an inhibition at 0.1 µM (human A2A AR; compound at 100 nM) of 56 ± 2.03% and an inhibition at 1 µM (human A2A AR; compound at 1000 nM) of 107.3 ± 0.89%. The inhibition at 0.1 µM (human A2B AR) was 52.9 ± 3.96% and the melting point was 139 to 140 °C.
Compound `Cc1c(C#N)cccc1-c1cc(-c2cn(Cc3cccc(C(=O)O)n3)nn2)nc(N)n1` [Compound 7h, 6-((4-(2-amino-6–(3-cyano-2-methylphenyl)pyrimidin-4-yl)-1H-1,2,3-triazol-1-yl)methyl)picolinic acid] has an inhibition at 0.01 µM (human A2A AR; compound at 10 nM) of 37.9 ± 2.32%, an inhibition at 0.1 µM (human A2A AR; compound at 100 nM) of 55.2 ± 4.27% and an inhibition at 1 µM (human A2A AR; compound at 1000 nM) of 92.6 ± 1.91%. For the same compound, the inhibition at 0.1 µM (human A2B AR) was 54.8 ± 2.09% and the melting point was 176 to 177 °C.
`Cc1c(C#N)cccc1-c1cc(-c2cn(Cc3cccc(C(=O)N4CC(O)C4)n3)nn2)nc(N)n1` [Compound 7k, 3-(2-Amino-6-(1-((6–(3-hydroxyazetidine-1-carbonyl)pyridin-2-yl)methyl)-1H-1,2,3-triazol-4-yl)pyrimidin-4-yl)-2-methylbenzonitrile] gave an inhibition at 0.01 µM (human A2A AR; compound at 10 nM) of 21.7 ± 5.43%, an inhibition at 0.1 µM (human A2A AR; compound at 100 nM) of 70.5 ± 6.37% and an inhibition at 1 µM (human A2A AR; compound at 1000 nM) of 94.9 ± 2.05%. For the same compound, the inhibition at 0.1 µM (human A2B AR) was 78.3 ± 2.66%.
